Test results from ChEMBL document CHEMBL1208697 (Bioorg Med Chem Lett, 2010).
pIC50: −log10 of the molar value.

Experiments:
Rattus norvegicus [1] = assay: Antiinflammatory activity in rat assessed as inhibition of carrageenan-induced paw edema after 3 hrs; assay type: functional
Rattus norvegicus [2] = assay: Antiinflammatory activity in rat assessed as inhibition of carrageenan-induced paw edema at 100 mg/kg, po after 3 hrs; assay type: functional
[3] = biological target: T1, Prostaglandin G/H synthase 1 (Ovis aries, UniProt P05979)
T1 sequence (P05979 whole entry): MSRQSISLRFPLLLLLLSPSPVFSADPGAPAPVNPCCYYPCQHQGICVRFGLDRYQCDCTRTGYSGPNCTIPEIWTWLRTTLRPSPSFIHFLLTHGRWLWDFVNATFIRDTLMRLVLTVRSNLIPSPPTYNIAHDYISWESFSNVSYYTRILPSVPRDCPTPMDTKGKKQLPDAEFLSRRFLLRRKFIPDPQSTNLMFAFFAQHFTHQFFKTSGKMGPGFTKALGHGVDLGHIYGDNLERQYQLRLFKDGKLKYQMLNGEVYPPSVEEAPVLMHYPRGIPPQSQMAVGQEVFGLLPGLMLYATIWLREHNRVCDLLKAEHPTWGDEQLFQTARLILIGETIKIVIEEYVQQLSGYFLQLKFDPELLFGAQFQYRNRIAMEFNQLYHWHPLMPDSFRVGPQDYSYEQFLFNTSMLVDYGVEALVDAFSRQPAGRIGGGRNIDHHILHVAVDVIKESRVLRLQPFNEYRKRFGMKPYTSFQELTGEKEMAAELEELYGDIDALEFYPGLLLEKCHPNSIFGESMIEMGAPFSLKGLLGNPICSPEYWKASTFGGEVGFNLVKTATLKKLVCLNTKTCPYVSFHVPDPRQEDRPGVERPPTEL
Description: Inhibition of sheep COX1 by enzyme immunoassay

| SMILES | pIC50 [3] | ED50 (Rattus norvegicus [1]) [µmol/kg] | inhibition in vivo at 100 mg/kg (Rattus norvegicus [2]) [%] |
| --- | --- | --- | --- |
| CO/N=[N+](/[O-])c1ccc(-c2cc(C(F)(F)F)nn2-c2ccc(S(N)(=O)=O)cc2)cc1 | 4.92 | 241 | 47.7 |
| NS(=O)(=O)c1ccc(-n2nc(C(F)(F)F)cc2-c2ccc(/[N+]([O-])=N\O)cc2)cc1 |  | 168 | 65.7 |
| CC(=O)OC(C)O/N=[N+](/[O-])c1ccc(-c2cc(C(F)(F)F)nn2-c2ccc(S(C)(=O)=O)cc2)cc1 (stereo unspecified) | 4.77 |  | 5.1 |

The remaining molecules from weak to strong by pIC50 [3], led by results:

| pIC50 [3] | SMILES | ED50 (Rattus norvegicus [1]) [µmol/kg] | inhibition in vivo at 100 mg/kg (Rattus norvegicus [2]) [%] |
| --- | --- | --- | --- |
| 4.95 | CC(=O)OC(C)O/N=[N+](/[O-])c1ccc(-c2cc(C(F)(F)F)nn2-c2ccc(S(N)(=O)=O)cc2)cc1 (stereo unspecified) |  | 18.6 |
| 4.98 | CO/N=[N+](/[O-])c1ccc(-c2cc(C(F)(F)F)nn2-c2ccc(S(C)(=O)=O)cc2)cc1 |  | 9.8 |
